# Source: patent US7258861B2, “TNF-derived peptides for use in treating oedema” (Innogenetics N.V., priority 2001, dated 2007)
# Several values for one entry are separate records, joined by “and”; a condition that tells them apart may be missing. Identical values can stand only once.
# Legend:
# [1] = tested on: ex vivo instilled rat lung; assay: Ex vivo rat flooded lung, model of hydrostatic edema
# Description: In this model edema is induced by instillating 2 ml of 0.9% NaCl solution intratracheally. Alternatively, edema formation can be modulated by varying the height of the venous outflow and the perfusion buffer containing reservoir, or alternatively by varying the time the lung is exposed to the elevated pressure. […] The clearance of alveolar fluid from the lung is calculated by means of measuring the concentration of HSA, which is added to the instillate over time. Alternatively, the over time weight loss as a measure of edema resorption (high weight loss is high liquid clearance), of the artificially instilled lung can be measured. The lung tidal volume, compliance and weight are monitored continuously during the experiment. At the end of the experiment bronchoalveolar fluid and supernatant of lung homogenate is taken for measurement of inflammatory mediators.
# The lungs of female Wistar rats (weight 200–250 g; Harlan-Winkelmann, Borchen, Germany) are prepared after terminal i.p. anesthesia by 160 mg/kg pentobarbitural —Na (Merial Ltd, Halbermoos, Germany) and perfused as described by Uhlig and Wolin (1994), and by Uhlig and von Bethmann (1997). All equipment is obtained from Hugo Sachs Electronics (March-Hugstetten, Germany). […] As perfusion medium, a Krebs-Henseleit buffer (38° C.) containing 2% bovine serum albumin (Fraction V, Scrva. Heidelberg, Germany), 0.1% glucose (Riedel-de-Haën Inc., Seelze, Germany), and 0.3% HEPES (ICN Biomedicals Inc., Ohio, USA) is used. The total amount of recirculating buffer is 100 ml. The lungs are suspended by the trachea and ventilated by negative pressure ventilation (inspiratory pressure: −7 cm H2O, expiratory pressure: −2 cm H2O) with 80 breaths per minute resulting in a tidal volume of approximately 2 ml. Every 5 minutes, a deep inspiratory breath (−20 cm H2O) is performed. Artificial thorax chamber pressure is measured with a differential pressure transducer (Validyne DP 45-14), and an air flow velocity with a pneumotachograh tube (Fleisch Type 0000) connected to a differential pressure transducer (Validyne DP 45-15). The perfusate flow (Narcomatic RT-500) and the arterial and venous pressure (Statham P23BB) are continuously monitored. The pH of the perfusate before entering the lung is kept at 7.25 to 7.35 by automatic bubbling of the buffer with CO2 as soon as the pH exceeds this range. A weight transducer is integrated into the chamber lid which allows the continuous assessment of lung weight. Data are recorded on a Pentium II computer using the Mathlab Sofware package (Mathworks, Inc., Nattick Mass., USA). For lung mechanics, the data are analyzed by applying the following formula: P=1/C*VT+RLdV/dT
# Where P is chamber pressure, C pulmonary compliance, VT tidal volume, and RL airway resistance. All lung physiology parameters were normalized to time point 0, i.e. after the end of the preconditioning perfusion of 40 minutes.
# [2] = tested on: resident peritoneal macrophages; assay: Whole-cell patch clamp in resident peritoneal macrophages; type: cell-based, mouse; details: 30 min preincubation, acidic pH
# Source text: (§1) Animals, cells and reagents. Male CBA/J or C57BL/6 mice, as well as male TNFR ½^0/0 C57BL/6 mice deficient in TNF receptors (Bruce et al., 1996) provided by H. Bluethmann, F. Hoffmann-La Roche, Basel, Switzerland, were used at the age of 8–10 weeks. Their care was in accordance with institutional guidelines. Lung microvascular endothelial cells were isolated from CBA/J mice and characterized as described (Jackson et al., 1990) using magnetic beads (Dynabeads M-450, Dynal, Oslo, Norway), covalently bound to a purified rat-anti-mouse PECAM-1 monoclonal antibody (donated by B. Imhof, University of Geneva). Microvascular lung endothelial cells were resuspended in DMEM containing 2 mM L-glutamine, 100 U/ml penicillin, […], 20% FCS, 40 U/ml heparin and […] endothelial cell growth supplement (Brunschwig Chemie, Basel, Switzerland). For patch clamp experiments, cells were plated onto 35×10 mm easy grip Petri dishes (Beckton Dickinson, Plymouth, UK), pre-coated with 0.2% gelatin (Sigma, Buchs, Switzerland). Resident peritoneal macrophages, isolated in ice cold RPMI containing antibiotics and 10 U/ml Heparin, were left to adhere onto 35×10 mm easy grip Petri dishes for 4 h, after which the non-adherent cells were removed. […]
# (§2) Electrophysiology. […] Currents were recorded with an Axopatch-200A amplifier (Axon Instrument Inc, Foster City, Calif., USA), low pass-filtered at 1 kHz. […]
# [3] = tested on: resident peritoneal macrophages from mice deficient in both TNF receptor-1 and -2; assay: Whole-cell patch clamp in resident peritoneal macrophages of TNFR1/2-deficient mice; type: cell-based, mouse; details: cells lacking TNF receptors
# Source text: as §1, §2
# [4] = tested on: lung microvascular endothelial cells; assay: Whole-cell patch clamp, membrane conductance in lung microvascular endothelial cells; type: cell-based, mouse
# Source text: Animals, cells and reagents. Male CBA/J or C57BL/6 mice, as well as male TNFR ½^0/0 C57BL/6 mice deficient in TNF receptors (Bruce et al., 1996) provided by H. Bluethmann, F. Hoffmann-La Roche, Basel, Switzerland, were used at the age of 8–10 weeks. Their care was in accordance with institutional guidelines. Lung microvascular endothelial cells were isolated from CBA/J mice and characterized as described (Jackson et al., 1990) using magnetic beads (Dynabeads M-450, Dynal, Oslo, Norway), covalently bound to a purified rat-anti-mouse PECAM-1 monoclonal antibody (donated by B. Imhof, University of Geneva). Microvascular lung endothelial cells were resuspended in DMEM containing 2 mM L-glutamine, 100 U/ml penicillin, […], 20% FCS, 40 U/ml heparin and […] endothelial cell growth supplement (Brunschwig Chemie, Basel, Switzerland). For patch clamp experiments, cells were plated onto 35×10 mm easy grip Petri dishes (Beckton Dickinson, Plymouth, UK), pre-coated with 0.2% gelatin (Sigma, Buchs, Switzerland). Resident peritoneal macrophages, isolated in ice cold RPMI containing antibiotics and 10 U/ml Heparin, were left to adhere onto 35×10 mm easy grip Petri dishes for 4 h, after which the non-adherent cells were removed. Cells were grown in RPMI 1640 containing 2 mM L-glutamine, 100 U/ml penicillin, 10 μpg/ml streptomycin and 10% fetal bovine serum (all from Gibco). For patch clamp, the macrophages ware used 24 h after isolation.
# Electrophysiology. Cells were pretreated for 30 min with TNF, mutTNF and tip peptides at 37° C. in a buffer consisting of 145 mM NaCl, 3 mM KCl, 2mM CaCl2, 2mM MgCl2, 10 mM D-glucose, and 10mM Hepes, and pH-adjusted with NaOH to required value. Cells were then washed with the same buffer pH-adjusted at 7.3, and experiments were performed using the tight-seal, whole-cell recording technique. Currents were recorded with an Axopatch-200A amplifier (Axon Instrument Inc, Foster City, Calif., USA), low pass-filtered at 1 kHz. Digitalization and off-line analysis was performed using the WCP program (J. Dempster, Strathclyde Electrophysiology Software, Glasgow, UK). Patch pipettes were pulled from borosilicate glass and fire polished to have an open resistance of 3–5 MW with an internal solution containing […], 2 mM MgCl2, 10mM EGTA, 20 mM TEA-Cl, 10 mM D-glucose 10 mM Hepes, pH-adjusted to 7.3 with CsOH. Series resistances were kept under 10 MW. Capacitance and series resistance compensation were applied and set to 70%. All experiments were done at room temperature. Results are given as mean ±SEM, unless otherwise indicated. Analysis of variance was performed on currents and membrane conductance values, with post-hoc Dunn-Bonferroni test for significance of differences observed between two groups. A P value of 0.05 was considered significant.
# normal rats = details: instillation in normal rats, over 1 hour; cited from earlier work
# isolated rat lungs = assay: Isolated blood perfused flooded rat lung (weight, lung mechanics, PV curves, histology)
# Description: Rats. For the ex vivo experiments, 31 Sprague-Dawley rats (300 to 350 g) were tracheotomized and mechanically ventilated (40% oxygen in air) under isoflurane anesthesia. The experimental protocol was reviewed and approved by the Ethics Committee for Animal Research and by the Veterinary Office of our institution. The femoral vessels were cannulated for blood sampling, fluid replacement, and continuous arterial blood pressure monitoring. Following anticoagulation (1.5 IU/g i.v. heparin), 20 ml of blood were withdrawn and replaced by an equal volume of dextran-40 (Macrodex 10% in normosaline) to serve as priming volume for the isolated perfusion circuit. The heart-lung block was prepared as described by Ma et al., 2000, weighed and assigned to one of four groups. […] The lungs were suspended, mechanically ventilated, and perfused at constant pressure with autologous blood as described by Ma et al., 2000.
# An inspiratory and expiratory quasi-static pressure-volume (PV) curve was performed at the end of the 2-hour reperfusion period by inflating and then deflating the lungs at a constant rate (0.3 ml/sec) using an automated infusion pump. A sigh was applied in all groups every 15 minutes to minimize atelectasis formation. The blood pH was maintained between 7.3 and 7.5 and, if necessary, corrected with sodium bicarbonate 8.4% or a change of the inspired CO2 as required by the blood gas analysis. Every 30 minutes, a blood sample was collected for blood gas analysis as well as for hematocrit and electrolyte concentration.
# Inclusion criteria. Immediately following the start of reperfusion, the preparation had to fulfill three technical inclusion criteria: • 1) left atrial pressure (LAP) 5-10 mmHg; • 2) peak airway pressure (AWP) <15 cmH2O; and • 3) pulmonary blood flow (PBF) >10 ml/min. […] The included lungs were then flooded with gentle intratracheal instillation of 2 ml normal saline and the recorded variables measured for 2 subsequent hours.
# Histological analysis. Random lung samples were fixed for light and electron microscopy and analyzed by pathologists blinded to the lung's protocol group assignment.
substance,measurement,setting,value
TNF: E.coli-derived recombinant murine TNF,clearing alveolar fluid content ex vivo,"[1]; after intratracheal instillation, summary in words",capable of clearing alveolar fluid content
same,Weight loss of ex vivo instilled rat lung over 80 min,"[1]; recombinant TNF 5 μg/lung alone, listed as mTNF",589 mg and 722 mg and 584 mg
same,whole cell current,[2],significant increase in outward
same,whole cell current,[3],induced a voltage-dependent current
same,induced increase in conductance in presence of amiloride,[4]; 100 μM amiloride added during pretreatment at pH 6.0,abrogated
same,whole cell current / membrane conductance,"[4]; 30 min preincubation at acidic pH (pH 6), TNF, mutTNF 100 ng/ml, peptides 100 μg/ml","significant increase in outward and, to a lesser extent, inward current"
same,reversal potential of induced conductance,[4]; endothelial cells,about 0 mV
same,whole cell current / membrane conductance,[4]; preincubation at pH 7.3 (neutral pH),did not occur
same,increase of alveolar liquid clearance,normal rats,43%
same,lung weight change over time after alveolar flooding,"isolated rat lungs; 2 hours reperfusion after 2 ml saline, TNF 5 μg, peptides 1 mg",no significant change in weight over time
same,"lung mechanics (peak AWP, Cdyn, Raw) after alveolar flooding","isolated rat lungs; 2 hours reperfusion, TNF 5 μg, peptides 1 mg",no difference from the saline-treated group
same,lower inflection point of inspiratory quasi-static PV curve,"isolated rat lungs; end of 2-hour reperfusion, TNF 5 μg, peptide 1 mg",20.0±0.8 cmH2O
same,leukocyte infiltration (lung histology),"isolated rat lungs; hematoxylin-stained slices, compared to controls",significantly increased leukocyte infiltration
same,endothelial flaps and epithelial blebs (electron microscopy),isolated rat lungs; pretreated lungs after flooding and 2 hours reperfusion,prominent numerous endothelial flaps
